Numbers after ± are expanded uncertainties.
Assay: xn = mol fraction of the nth substance listed
Conditions: Liquid, Vibrating tube method

CN(C)C=O [dimethylformamide] + O=C=O
Conditions | mass density [kg/m3]
332.98 K, 14003 kPa, x2 = 0.4268 | 937.07 ± 0.41
332.98 K, 14011 kPa, x2 = 0.9311 | 761.83 ± 0.54
332.98 K, 15006 kPa, x2 = 0.4268 | 938.28 ± 0.41
332.98 K, 15009 kPa, x2 = 0.9311 | 776.41 ± 0.52
332.98 K, 16024 kPa, x2 = 0.4268 | 939.46 ± 0.41
332.98 K, 16030 kPa, x2 = 0.9311 | 789.22 ± 0.51
332.98 K, 17017 kPa, x2 = 0.9311 | 800.11 ± 0.5
332.98 K, 17036 kPa, x2 = 0.4268 | 940.67 ± 0.41
332.98 K, 18002 kPa, x2 = 0.9311 | 809.93 ± 0.49
332.98 K, 18017 kPa, x2 = 0.4268 | 941.85 ± 0.41
332.98 K, 19025 kPa, x2 = 0.4268 | 943 ± 0.41
332.98 K, 19031 kPa, x2 = 0.9311 | 819.29 ± 0.48
332.98 K, 20004 kPa, x2 = 0.4268 | 944.1 ± 0.41
332.98 K, 20025 kPa, x2 = 0.9311 | 827.57 ± 0.48
332.98 K, 21001 kPa, x2 = 0.4268 | 945.19 ± 0.41
332.98 K, 21030 kPa, x2 = 0.9311 | 835.37 ± 0.47
332.98 K, 21993 kPa, x2 = 0.4268 | 946.33 ± 0.41
332.98 K, 21994 kPa, x2 = 0.9311 | 842.35 ± 0.47
332.98 K, 22998 kPa, x2 = 0.9311 | 849.15 ± 0.47
332.98 K, 23015 kPa, x2 = 0.4268 | 947.45 ± 0.41
332.98 K, 24024 kPa, x2 = 0.9311 | 855.75 ± 0.46
332.98 K, 24114 kPa, x2 = 0.4268 | 948.62 ± 0.41
332.98 K, 25011 kPa, x2 = 0.9311 | 861.78 ± 0.46
332.98 K, 25061 kPa, x2 = 0.4268 | 949.68 ± 0.41
332.99 K, 6007 kPa, x2 = 0.2876 | 926.13 ± 0.41
332.99 K, 6998 kPa, x2 = 0.2876 | 927.15 ± 0.41
332.99 K, 7991 kPa, x2 = 0.2876 | 928.18 ± 0.41
332.99 K, 9011 kPa, x2 = 0.4461 | 930.78 ± 0.41
332.99 K, 9021 kPa, x2 = 0.2876 | 929.22 ± 0.41
332.99 K, 9993 kPa, x2 = 0.4461 | 931.95 ± 0.41
332.99 K, 10024 kPa, x2 = 0.2876 | 930.23 ± 0.41
332.99 K, 11006 kPa, x2 = 0.2876 | 931.19 ± 0.41
332.99 K, 11013 kPa, x2 = 0.4461 | 933.65 ± 0.41
332.99 K, 12003 kPa, x2 = 0.4461 | 934.9 ± 0.41
332.99 K, 12020 kPa, x2 = 0.2876 | 932.19 ± 0.41
332.99 K, 13012 kPa, x2 = 0.4461 | 936.18 ± 0.41
332.99 K, 13024 kPa, x2 = 0.2876 | 933.16 ± 0.41
332.99 K, 13991 kPa, x2 = 0.4461 | 937.43 ± 0.41
332.99 K, 14028 kPa, x2 = 0.2876 | 934.12 ± 0.41
332.99 K, 15009 kPa, x2 = 0.4461 | 938.71 ± 0.41
332.99 K, 15010 kPa, x2 = 0.2876 | 935.07 ± 0.41
332.99 K, 16010 kPa, x2 = 0.2876 | 936.01 ± 0.41
332.99 K, 16010 kPa, x2 = 0.4461 | 939.93 ± 0.41
332.99 K, 17001 kPa, x2 = 0.4461 | 941.16 ± 0.41
332.99 K, 17003 kPa, x2 = 0.2876 | 936.96 ± 0.41
332.99 K, 17994 kPa, x2 = 0.4461 | 942.35 ± 0.41
332.99 K, 18005 kPa, x2 = 0.2876 | 937.87 ± 0.41
332.99 K, 18988 kPa, x2 = 0.4461 | 943.52 ± 0.41
332.99 K, 19008 kPa, x2 = 0.2876 | 938.78 ± 0.41
332.99 K, 20001 kPa, x2 = 0.4461 | 944.69 ± 0.41
332.99 K, 20007 kPa, x2 = 0.2876 | 939.69 ± 0.41
332.99 K, 20995 kPa, x2 = 0.4461 | 945.88 ± 0.41
332.99 K, 21004 kPa, x2 = 0.2876 | 940.6 ± 0.41
332.99 K, 21990 kPa, x2 = 0.2876 | 941.48 ± 0.41
332.99 K, 21998 kPa, x2 = 0.4461 | 947.03 ± 0.41
332.99 K, 23023 kPa, x2 = 0.4461 | 948.19 ± 0.41
332.99 K, 23037 kPa, x2 = 0.2876 | 942.42 ± 0.41
332.99 K, 23982 kPa, x2 = 0.4461 | 949.27 ± 0.41
332.99 K, 24000 kPa, x2 = 0.2876 | 943.28 ± 0.41
332.99 K, 24996 kPa, x2 = 0.2876 | 944.13 ± 0.41
332.99 K, 25021 kPa, x2 = 0.4461 | 950.44 ± 0.41
333 K, 7019 kPa, x2 = 0.4502 | 928.11 ± 0.41
333 K, 8001 kPa, x2 = 0.4502 | 929.45 ± 0.41
333 K, 8029 kPa, x2 = 0.4068 | 930.01 ± 0.41
333 K, 9015 kPa, x2 = 0.4502 | 930.81 ± 0.41
333 K, 9016 kPa, x2 = 0.4068 | 931.23 ± 0.41
333 K, 10008 kPa, x2 = 0.4068 | 932.42 ± 0.41
333 K, 10013 kPa, x2 = 0.4502 | 932.14 ± 0.41
333 K, 11006 kPa, x2 = 0.4502 | 933.42 ± 0.41
333 K, 11025 kPa, x2 = 0.4068 | 933.65 ± 0.41
333 K, 12004 kPa, x2 = 0.4502 | 934.74 ± 0.41
333 K, 12006 kPa, x2 = 0.4068 | 934.81 ± 0.41
333 K, 13019 kPa, x2 = 0.4068 | 936.04 ± 0.41
333 K, 13021 kPa, x2 = 0.4502 | 936.04 ± 0.41
333 K, 14010 kPa, x2 = 0.4068 | 937.15 ± 0.41
333 K, 14019 kPa, x2 = 0.4502 | 937.31 ± 0.41
333 K, 15001 kPa, x2 = 0.4502 | 938.54 ± 0.41
333 K, 15002 kPa, x2 = 0.4068 | 938.28 ± 0.41
333 K, 16010 kPa, x2 = 0.4068 | 939.41 ± 0.41
333 K, 16014 kPa, x2 = 0.4502 | 939.78 ± 0.41
333 K, 16998 kPa, x2 = 0.4068 | 940.54 ± 0.41
333 K, 17013 kPa, x2 = 0.4502 | 941.01 ± 0.41
333 K, 18013 kPa, x2 = 0.4068 | 941.67 ± 0.41

Reference: the NIST ThermoML archive (doi:10.1021/je050050p)
